Experimental data taken from patent US20090203661A1, “Betulinic acid, derivatives and analogs thereof and uses therefor” (priority 2006, published 2009).
Residues, ends and D or L forms follow the SMILES beside them. *: point of attachment. Cbz = O=C(OCc1ccccc1)*

Experiments:
[1] = system: HT-29 cells; details: HT-29, earlier reports; cited from earlier work
[2] = system: LNCaP cells; test: Western blot analysis of protein expression in LNCaP cells; assay type: cell-based, Human; details: 10 μM, compound alone
Protocol: Human carcinoma cell lines LNCaP (prostate) and SK-MEL2 (melanoma) were obtained from American Type Culture Collection (Manassas, Va.). Cell lines were maintained in RPMI 1640 (Sigma) supplemented with 0.22% sodium bicarbonate, 0.011% sodium pyruvate, 0.45% glucose, 0.24% HEPES, 10% FBS, and 10 mL/L of 100× Antibiotic Antimycotic solution (Sigma). Cells were maintained at 37° C. in the presence of 5% CO2.
An equal amount of cell lysate (60 μg/well) was separated by 7.5% to 12% SDS-PAGE, which was followed by immunoblotting onto polyvinylidene difluoride (Bio-Rad, Hercules, Calif.). After blocking in TBST-Blotto (10 mmol/L Tris-HCl, 150 mmol/L NaCl (pH 8.0), 0.05% Triton X-100, 5% nonfat dry milk) for 30 min, the membranes were incubated with primary antibodies overnight at 4° C. and then with horseradish peroxidase-conjugated secondary antibody for 2 hr at room temperature. Proteins were visualized using the chemiluminescence substrate (Perkin-Elmer Life Sciences) for 1 min and exposed to Kodak X-OMAT AR autoradiography film (Eastman Kodak, Rochester, N.Y.).

[3] = biological target: T1, PPARγ (Homo sapiens, UniProt P37231); test: Mammalian two-hybrid assay (VP-PPARγ / GAL4-coactivator) in SW480 cells; assay type: cell-based
T1 construct: containing the DEF region of the PPARγ (amino acids 183-505) fused to the pVP16 expression vector; expressed in transfected cells; host or cells: SW480 colon cancer cells; plasmid provided by Dr. Shigeaki Kato (University of Tokyo)
T1 sequence (P37231 183-505): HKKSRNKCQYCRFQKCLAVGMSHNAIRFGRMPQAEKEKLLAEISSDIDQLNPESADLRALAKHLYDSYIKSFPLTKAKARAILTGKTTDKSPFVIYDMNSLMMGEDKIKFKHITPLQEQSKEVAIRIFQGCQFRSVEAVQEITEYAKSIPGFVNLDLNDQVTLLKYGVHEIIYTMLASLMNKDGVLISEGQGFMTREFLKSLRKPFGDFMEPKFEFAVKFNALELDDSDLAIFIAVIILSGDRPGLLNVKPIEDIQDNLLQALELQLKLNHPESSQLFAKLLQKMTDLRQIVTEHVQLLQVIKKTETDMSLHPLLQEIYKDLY
Protocol: The GAL4 reporter construct containing 5×GAL4 response elements (p GAL4) was provided by Dr. Marty Mayo (University of […], Chapel Hill, N.C.). The GAL4-coactivator fusion plasmids pM-SRC1, pMSRC2, pMSRC3, pM-DRIP205, pM-CARM-1 and PPARγ-VP16 fusion plasmid (Vp-PPARγ) containing the DEF region of the PPARγ (amino acids 183-505) fused to the pVP16 expression vector were provided by Dr. Shigeaki Kato (University of Tokyo, Tokyo, Japan). SW480 colon cancer cells were plated in 12-well tissue culture plates at 1×10^5 cells per well in DMEM/Ham's F-12 medium supplemented with 2.5% charcoal stripped FBS.
After allowing them to adhere overnight, transient transfections were carried out with GAL4-Luc (0.4 μg), β-GAL (0.04 μg), VP-PPARγ (0.04 μg), pM-SRC1 (0.04 μg), pM-PGC-1 (0.04 μg), pM-SMRT (0.04 μg), pM-TRAP220 (0.04 μg), pM-DRIP205 (0.04 μg), and pMCARM1 (0.04 μg) using LipofectAMINE2000 (Invitrogen) following the manufacturer's guidelines. After 6 hr of transfection, cells were treated in triplicate either with vehicle (DMSO) or the indicated compound suspended in complete medium for 20-24 hr. One hundred μL per well of 1× Reporter Lysis Buffer (Promega) was used to lyse the cells and 30 μl of this lysate was used to perform the luciferase and β-GAL assays using Lumicount (Perkin-Elmer Life and Analytical Sciences, Boston, Mass.). The luciferase activities obtained were normalized to the β-gal activity.

[4] = system: HT-29 cells; test: KLF4 mRNA (RT-PCR) in HT-29 cells; assay type: cell-based, human
Protocol: SW480 and HT29 colon cancer cells were treated either with vehicle (DMSO) or indicated compounds and after 24 hr total RNA was extracted using RNeasy Mini kit (Qiagen, Inc., Valencia, Calif.). RNA concentration was measured by UV 260:280 nm absorption ratio and 2 μg RNA was used to synthesize cDNA using Reverse Transcription System (Promega). PCR conditions were as follows: initial denaturation at 94° C. (1 min) followed by 28 cycles of denaturation for 30 s at 94° C., annealing for 60 s at 55° C. and extension at 72° C. for 60 s and a final extension step at 72° C. for 5 min. The mRNA levels were normalized using GAPDH as an internal housekeeping gene. Primers obtained from IDT and used for amplification are as follows: KLF4 (sense 5′-CTATGGCAGGGAGTCCGCTCC-3′ (SEQ ID NO: 1); antisense 5′-ATGACCGACGGGCTGCCGTAC-3′ (SEQ ID NO: 2)) and GAPDH (sense 5′-ACGGATTTGGTCGTATTGGGCG-3′ (SEQ ID NO: 3); antisense 5′-CTCCTGGAAGATGGTGATGG-3′ (SEQ ID NO: 4). PCR products were electrophoresed on 1% agarose gels containing ethidium bromide and visualized under UV transillumination.

[5] = system: SW480 cells; details: SW480, earlier reports; cited from earlier work
[6] = system: SW480 cells; details: SW480, reference [9]; cited from earlier work

Compound	caveolin-1 induction [1]	caveolin-1 induction [5]	also measured
CC1(C)C(=O)C(C#N)=C[C@]2(C)[C@H]3C(=O)C=C4[C@@H]5C[C@@](C)(C(=O)O)CC[C@]5(C)CC[C@@]4(C)[C@]3(C)CC[C@@H]12 [β-CDODA]	induced caveolin-1		
CC(C)C[C@@H](C=O)NC(=O)[C@H](CC(C)C)NC(=O)[C@H](CC(C)C)NC(=O)OCc1ccccc1 [MG132] (Cbz-Leu-Leu-Leu-aldehyde)			PARP cleavage [2]: induced caspase-dependent cleavage of PARP
COC(=O)[C@@]1(C)CCC2(C)CC[C@]3(C)C(=CC(=O)[C@@H]4C5(C)C=C(C#N)C(=O)C(C)(C)[C@@H]5CCC43C)C2C1 (stereo partly drawn) [β-CDODA-Me, Methyl 2-cyano-3,12-dioxo-18β-olean-1,12-diene-30-oic Acid, reference compound]			luciferase activity, VP-PPARγ with GAL4 PGC-1 and GAL4 SRC-1 [3]: significantly induced luciferase activity; effect of T007 on induction of KLF4 mRNA ([4]; HT-29, cotreatment with T007): decreased significantly; part of induced KLF4 mRNA response inhibited by T007 ([4]; cotreatment with T007): 60-80%
COC(=O)[C@@]1(C)CC[C@]2(C)CC[C@]3(C)C(=CC(=O)[C@@H]4[C@@]5(C)C=C(C#N)C(=O)C(C)(C)[C@@H]5CC[C@]43C)[C@H]2C1 [α-CDODA-Me]	inducing caveolin-1	inducing caveolin-1	KLF4 mRNA [6]: enhanced KLF4 mRNA
CC1(C)CC[C@]2(C(=O)O)CC[C@]3(C)[C@H](C(=O)C=C4[C@@]5(C)C=C(C#N)C(=O)C(C)(C)[C@@H]5CC[C@]43C)[C@@H]2C1 [CDDO]	inducing caveolin-1	inducing caveolin-1	
